The values below come from patent publication US11446287B2, “Compounds and methods for EP300 or CBP modulation and indications therefor” (Opna Immuno-Oncology SA, priority 2019, dated 2022).

In this experiment the target is T1, Recombinant human BRD4 containing dual bromodomains (BRD4-BD12 (1-477)) (Homo sapiens, UniProt O60885).
T1 construct: Recombinant human BRD4 containing dual bromodomains (BRD4-BD12 (1-477)); made in house; host or cells: E. coli BL21-CodonPlus (DE3), modified pET vector
Kind of experiment: BRD4 Alphascreen binding assay. Summed up: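 His-tagged human BRD4 tandem bromodomains (1-477, E. coli) incubated 1 h at room temperature with biotinylated tetra-acetylated H4 (1-21) peptide and compound in HEPES pH 7.5 buffer with 2 mM DTT. AlphaScreen signal read 30 min after adding beads (7.5 μg/ml); IC50 from four-parameter fit after normalization to controls.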

The structures appear in SMILES notation. pIC50: −log10 of the molar value.

`Cc1noc(C)c1-c1cnc2c(c1)c(-c1ccc(C(=O)O)cc1Cl)cn2C(c1ccccn1)C1CCCC1` (centres unmarked) [P-0027, 3-chloro-4-(1-(cyclopentyl(pyridin-2-yl)methyl)-5-(3,5-dimethylisoxazol-4-yl)-1H-pyrrolo[2,3-b]pyridin-3-yl)benzoic acid]: the pIC50 is 5.10 to 6.00.

Take `Cc1cc(-c2cn(C(c3ccccn3)C3CCCC3)c3ncc(-c4c(C)noc4C)cc23)ccc1C(=O)O` (centres unmarked) [P-0028, 4-(1-(cyclopentyl(pyridin-2-yl)methyl)-5-(3,5-dimethylisoxazol-4-yl)-1H-pyrrolo[2,3-b]pyridin-3-yl)-2-methylbenzoic acid]: the negative logarithm of the IC50 (pIC50) is 5.10 to 6.00.

For the compound `Cc1noc(C)c1-c1cnc2c(c1)c(-c1ccc(C(=O)O)c(C(F)(F)F)c1)cn2C(c1ccccn1)C1CCCC1` (centres unmarked) [P-0029, 4-(1-(cyclopentyl(pyridin-2-yl)methyl)-5-(3,5-dimethylisoxazol-4-yl)-1H-pyrrolo[2,3-b]pyridin-3-yl)-2-(trifluoromethyl)benzoic acid], the pIC50 was 5.10 to 6.00.

For `Cc1noc(C)c1-c1cnc2c(c1)c(-c1ccc(C(=O)O)c(O)c1)cn2C(c1ccccn1)C1CCCC1` (centres unmarked) [P-0030, 4-(1-(cyclopentyl(pyridin-2-yl)methyl)-5-(3,5-dimethylisoxazol-4-yl)-1H-pyrrolo[2,3-b]pyridin-3-yl)-2-hydroxybenzoic acid], the pIC50 is 3.00 to 5.10.

Consider `Cc1noc(C)c1-c1cnc2c(c1)c(-c1ccc(CC(=O)O)cc1)cn2C(c1ccccn1)C1CCCC1` (centres unmarked) [P-0031, 2-(4-(1-(cyclopentyl(pyridin-2-yl)methyl)-5-(3,5-dimethylisoxazol-4-yl)-1H-pyrrolo[2,3-b]pyridin-3-yl)phenyl)acetic acid], for which the pIC50 was 5.10 to 6.00.

For `Cc1noc(C)c1-c1cnc2c(c1)c(-c1ccc(C(C)(C)C(=O)O)cc1)cn2C(c1ccccn1)C1CCCC1` (centres unmarked) [P-0032, 2-(4-(1-(cyclopentyl(pyridin-2-yl)methyl)-5-(3,5-dimethylisoxazol-4-yl)-1H-pyrrolo[2,3-b]pyridin-3-yl)phenyl)-2-methylpropanoic acid], the negative-log IC50 (pIC50) is 5.10 to 6.00.

In the case of `Cc1noc(C)c1-c1cnc2c(c1)c(-c1ccc(C3(C(=O)O)CC3)cc1)cn2C(c1ccccn1)C1CCCC1` (centres unmarked) [P-0033, 1-(4-(1-(cyclopentyl(pyridin-2-yl)methyl)-5-(3,5-dimethylisoxazol-4-yl)-1H-pyrrolo[2,3-b]pyridin-3-yl)phenyl)cyclopropane-1-carboxylic acid], the pIC50 was 5.10 to 6.00.

Regarding `Cc1noc(C)c1-c1cnc2c(c1)c(-c1ccc(C(F)(F)C(=O)O)cc1)cn2C(c1ccccn1)C1CCCC1` (centres unmarked) [P-0034, 2-(4-(1-(cyclopentyl(pyridin-2-yl)methyl)-5-(3,5-dimethylisoxazol-4-yl)-1H-pyrrolo[2,3-b]pyridin-3-yl)phenyl)-2,2-difluoroacetic acid], the pIC50 is 5.10 to 6.00.

Take `COc1ncccc1-n1cc(-c2ccc(C(=O)O)cc2OC(F)(F)F)c2cc(-c3c(C)noc3C)cnc21` [P-0316, 4-(5-(3,5-dimethylisoxazol-4-yl)-1-(2-methoxypyridin-3-yl)-1H-pyrrolo[2,3-b]pyridin-3-yl)-3-(trifluoromethoxy)benzoic acid]: the negative-log IC50 (pIC50) was 5.10 to 6.00.

Regarding `Cc1ncccc1-n1cc(-c2ccc(C(=O)O)cc2OC(F)(F)F)c2cc(-c3c(C)noc3C)cnc21` [P-0317, 4-(5-(3,5-dimethylisoxazol-4-yl)-1-(2-methylpyridin-3-yl)-1H-pyrrolo[2,3-b]pyridin-3-yl)-3-(trifluoromethoxy)benzoic acid], the pIC50 is 3.00 to 5.10.

For the compound `Cc1noc(C)c1-c1cnc2c(c1)c(-c1ccc(C(=O)O)cc1OC(F)(F)F)cn2-c1cnn(C)c1` [P-0318, 4-(5-(3,5-dimethylisoxazol-4-yl)-1-(1-methyl-1H-pyrazol-4-yl)-1H-pyrrolo[2,3-b]pyridin-3-yl)-3-(trifluoromethoxy)benzoic acid], the pIC50 is 6.00 to 10.00.

`Cc1noc(C)c1-c1cnc2c(c1)c(-c1ccc(C(=O)O)cc1OC(F)(F)F)cn2-c1cncnc1` [P-0319, 4-(5-(3,5-dimethylisoxazol-4-yl)-1-(pyrimidin-5-yl)-1H-pyrrolo[2,3-b]pyridin-3-yl)-3-(trifluoromethoxy)benzoic acid]: the pIC50 is 5.10 to 6.00.

For `Cc1noc(C)c1-c1cnc2c(c1)c(-c1ccc(C(=O)O)cc1OC(F)(F)F)cn2-c1cnc(N)nc1` [P-0320, 4-(1-(2-aminopyrimidin-5-yl)-5-(3,5-dimethylisoxazol-4-yl)-1H-pyrrolo[2,3-b]pyridin-3-yl)-3-(trifluoromethoxy)benzoic acid], the pIC50 is 5.10 to 6.00.

With `Cc1noc(C)c1-c1cnc2c(c1)c(-c1ccc(C(=O)O)cc1OC(F)(F)F)cn2-c1cnc(N(C)C)nc1` [P-0321], the pIC50 was 5.10 to 6.00.

With `Cc1noc(C)c1-c1cnc2c(c1)c(-c1ccc(C(=O)O)cc1OC(F)(F)F)cn2-c1ccc(C(=O)O)cc1` [P-0322, 4-(1-(4-carboxyphenyl)-5-(3,5-dimethylisoxazol-4-yl)-1H-pyrrolo[2,3-b]pyridin-3-yl)-3-(trifluoromethoxy)benzoic acid], the negative-log IC50 (pIC50) was 5.10 to 6.00.

For the compound `Cc1noc(C)c1-c1cnc2c(c1)c(-c1ccc(C(=O)O)cc1OC(F)(F)F)cn2-c1ccc(C(N)=O)cc1` [P-0323, 4-(1-(4-carbamoylphenyl)-5-(3,5-dimethylisoxazol-4-yl)-1H-pyrrolo[2,3-b]pyridin-3-yl)-3-(trifluoromethoxy)benzoic acid], the pIC50 is 5.10 to 6.00.

On to `COc1cc(C(=O)O)ncc1-c1cn(-c2ccncc2Cl)c2ncc(-c3c(C)noc3C)cc12` [P-0324, 5-(1-(3-chloropyridin-4-yl)-5-(3,5-dimethylisoxazol-4-yl)-1H-pyrrolo[2,3-b]pyridin-3-yl)-4-methoxypicolinic acid], for which the pIC50 is 5.10 to 6.00.

As to `Cc1noc(C)c1-c1cnc2c(c1)c(-c1ccc(C(=O)O)cc1OCC(F)F)cn2[C@H]1CCOC1` [P-0325, (S)-3-(2,2-difluoroethoxy)-4-(5-(3,5-dimethylisoxazol-4-yl)-1-(tetrahydrofuran-3-yl)-1H-pyrrolo[2,3-b]pyridin-3-yl)benzoic acid], the pIC50 is 3.00 to 5.10.

Consider `CCn1cc(-n2cc(-c3ccc(C(=O)O)cc3OCC(F)F)c3cc(-c4c(C)noc4C)cnc32)c(C)n1` [P-0326, 3-(2,2-difluoroethoxy)-4-(5-(3,5-dimethylisoxazol-4-yl)-1-(1-ethyl-3-methyl-1H-pyrazol-4-yl)-1H-pyrrolo[2,3-b]pyridin-3-yl)benzoic acid], for which the pIC50 was 3.00 to 5.10.

Take `Cc1noc(C)c1-c1cnc2c(c1)c(-c1c(F)cc(C(=O)O)cc1OCC(F)F)cn2-c1ccccc1` [P-0327, 3-(2,2-difluoroethoxy)-4-(5-(3,5-dimethylisoxazol-4-yl)-1-phenyl-1H-pyrrolo[2,3-b]pyridin-3-yl)-5-fluorobenzoic acid]: the pIC50 is 5.10 to 6.00.

On to `Cc1noc(C)c1-c1cnc2c(c1)c(-c1ccc(C(=O)O)cc1OCC(F)F)cn2-c1cnc(N2CCC2)nc1` [P-0328, 4-(1-(2-(azetidin-1-yl)pyrimidin-5-yl)-5-(3,5-dimethylisoxazol-4-yl)-1H-pyrrolo[2,3-b]pyridin-3-yl)-3-(2,2-difluoroethoxy)benzoic acid], for which the pIC50 was 3.00 to 5.10.

For the compound `CCOc1cc(C(=O)O)nc(OCC)c1-c1cn(-c2ccc(F)cc2F)c2ncc(-c3c(C)noc3C)cc12` [P-0329, 5-(1-(2,4-difluorophenyl)-5-(3,5-dimethylisoxazol-4-yl)-1H-pyrrolo[2,3-b]pyridin-3-yl)-4,6-diethoxypicolinic acid], the pIC50 was 5.10 to 6.00.

`CCOc1cc(C(=O)O)c(F)cc1-c1cn(-c2ccc(F)cc2F)c2ncc(-c3c(C)noc3C)cc12` [P-0330, 4-(1-(2,4-difluorophenyl)-5-(3,5-dimethylisoxazol-4-yl)-1H-pyrrolo[2,3-b]pyridin-3-yl)-5-ethoxy-2-fluorobenzoic acid]: the pIC50 was 5.10 to 6.00.

On to `Cc1noc(C)c1-c1cnc2c(c1)c(-c1c(Cl)cc(C(=O)O)cc1OCC(F)F)cn2-c1cnc(N2CCC2)nc1` [P-0331, 4-(1-(2-(azetidin-1-yl)pyrimidin-5-yl)-5-(3,5-dimethylisoxazol-4-yl)-1H-pyrrolo[2,3-b]pyridin-3-yl)-3-chloro-5-(2,2-difluoroethoxy)benzoic acid], for which the pIC50 was 6.00 to 10.00.

Regarding `Cc1noc(C)c1-c1cnc2c(c1)c(-c1c(Cl)cc(C(=O)O)cc1OCC(F)F)cn2-c1ccccc1` [P-0332, 3-chloro-5-(2,2-difluoroethoxy)-4-(5-(3,5-dimethylisoxazol-4-yl)-1-phenyl-1H-pyrrolo[2,3-b]pyridin-3-yl)benzoic acid], the pIC50 was 5.10 to 6.00.

Consider `Cc1noc(C)c1-c1cnc2c(c1)c(-c1c(Cl)cc(C(=O)O)cc1OCC(F)F)cn2[C@H]1CCOC1` [P-0333, (S)-3-chloro-5-(2,2-difluoroethoxy)-4-(5-(3,5-dimethylisoxazol-4-yl)-1-(tetrahydrofuran-3-yl)-1H-pyrrolo[2,3-b]pyridin-3-yl)benzoic acid], for which the pIC50 is 3.00 to 5.10.

For the compound `Cc1noc(C)c1-c1cnc2c(c1)c(-c1ccc(C(=O)O)cc1OC1CCC1)cn2-c1ncccc1C#N` [P-0334, 4-(1-(3-cyanopyridin-2-yl)-5-(3,5-dimethylisoxazol-4-yl)-1H-pyrrolo[2,3-b]pyridin-3-yl)-3-cyclobutoxybenzoic acid], the pIC50 was 3.00 to 5.10.

As for `Cc1noc(C)c1-c1cnc2c(c1)c(-c1ccc(C(=O)O)cc1OC(F)(F)F)cn2C1(CC#N)CCC1` [P-0335, 4-(1-(1-(cyanomethyl)cyclobutyl)-5-(3,5-dimethylisoxazol-4-yl)-1H-pyrrolo[2,3-b]pyridin-3-yl)-3-(trifluoromethoxy)benzoic acid], the pIC50 is 3.00 to 5.10.

For the compound `Cc1noc(C)c1-c1cnc2c(c1)c(-c1ccc(C(=O)O)cc1OC(C)C)cn2-c1ncccc1C#N` [P-0336, 4-(1-(3-cyanopyridin-2-yl)-5-(3,5-dimethylisoxazol-4-yl)-1H-pyrrolo[2,3-b]pyridin-3-yl)-3-isopropoxybenzoic acid], the pIC50 was 3.00 to 5.10.
